Results published in EP2271935B1, “METHOD AND KIT FOR THE EX VIVO EVALUATION OF THE RESPONSE OF A TUMOR TO CONDITIONS TO BE TESTED” (Universität Leipzig, priority 2008, dated 2009).

Tested on: colonies of epithelial cells of head and neck squamous carcinoma
Assay: ex vivo colony formation assay of collagenase-digested tumor samples, epithelial colonies counted after cytokeratin staining
Type: cell-based, human
Conditions: for Range from / Range to: concentrations with log-linear relation to response; for Range from / Range to / Cut-off concentrations Sample 1 / Cut-off concentrations Sample 2 / Cut-off concentrations Sample 3 / IC50 Sample 1 / IC50 Sample 2 / IC50 Sample 3: docetaxel (TPL = 0.55 µmol/l), 72 h
Method: Thereafter the tumors which usually have a size of about 0.1 to 1 ml were mechanically disintegrated by mincing to tissue pats of about 0.1 to 10 mm^3 and immersed each in 30 ml of pre-warmed riboflavin-free RPMI 1640 medium without phenol red and containing 14.5 mmol/l HEPES, 13.5 mmol/l NaHCO3, stabilized glutamine, 10% (v/v) fetal calf serum, the antibiotics penicillin, streptomycin and amikacin, as well as the antimycotic nystatin. The tumor cells were always handled at room temperature or warmer and never exposed to light other than the light of a sodium discharge lamp with an emission wavelength of 589 nm. Immediately after mechanical disintegration 120 U/ml collagenase type IV of Clostridium histolyticum (EC 3.4.24.3, type IV) were added and the mixture incubated for 16 h at 36.5°C in brown glass bottles in an incubator. To ensure optimal incubation conditions, the CO2 concentration therein was constantly kept at 3.5% and relative humidity at 95%. Following enzymatic disintegration by collagenase the digest was centrifuged for 10 min at 1200 rpm, the resulting pellets were carefully re-suspended in fresh culture medium supplemented as described but without collagenase. […] Ex-vivo testing was performed 72 h using the same culture conditions as during the collagenase digest.
After 72 hours of incubation, the wells were rinsed twice with phosphate buffered saline, pH 7.8, and the adherent cells and cell colonies were fixed with ice-cold 90% methanol for 10 min. Fixed specimens were exposed for 5 min to PBS/ 0.1% Tween-20® (Polysorbate 20) before preincubation with 1% serum in PBS/ 0.1% Tween-20 for 45 min, followed by overnight incubation at 4°C with the primary antibody (anti-cytokeratin; SantaCruz sc-8018, C11) diluted 1:400 in PBS/ 0.1% Tween-20 supplemented with 0.2 % serum. After three rinses for 10 min each with PBS/ 0.2 % Serum/ 0.1% Tween-20, specimens were incubated for another 2 h at room temperature in the dark with the secondary antibody (anti-mouse IgG coupled with Cy2 or Cy3 fluorescence dye, Jackson ImmunoResearch, Cambs, UK) in a 1:400 dilution in PBS/ 0.2 % Serum/ 0.1 % Tween-20 followed by three rinses with PBS/ 0.2 % Serum/ 0.1 % Tween-20, and a final rinse with distilled water for 2 min. The test plate was air dried, and fluorescence signals were imaged with the Zeiss Axiovert 200M inverted fluorescence microscope (Zeiss, Jena, Germany) using Zeiss filter sets 44 and 43HE for Cy2 and Cy3, respectively. The evaluation of the colonies is possible using every given fluorescence microscope but is eased by the use of dedicated filter sets. […] The test is utilized by separately counting of colonies of different types (stained epithelial, unstained stromal cells), the numbers of colonies in the different treatments (e.g. doses of radiation or concentrations of chemotherapeutics) are recorded and kept for further analysis.
(§1) Freshly resected probes of head and neck squamous carcinoma of 14 untreated patients were investigated and treated if not stated otherwise as described in example 1. Three fragments were each excised from different tumor areas, weighed, and treated with collagenase as outlined in Example 1.
1.5 mg of tumor was applied to a well.
as §1, with “Example 1. Collagenase digests were exposed to concentrations in the range from 0.5- to 32-fold the tolerated plasma levels (TPL) of docetaxel: (TPL = 0.55 µmol/l).” for “Example 1.”

## CC(=O)O[C@@]12CO[C@@H]1C[C@H](O)[C@@]1(C)C(=O)[C@H](O)C3=C(C)[C@@H](OC(=O)[C@H](O)[C@@H](NC(=O)OC(C)(C)C)c4ccccc4)C[C@@](O)([C@@H](OC(=O)c4ccccc4)[C@H]21)C3(C)C [docetaxel]
Tumor-No. 1
  Range from: 2.0 n-fold TPL
  Range to: 8.0 n-fold TPL
  Cut-off concentrations Sample 1: 8 n-fold TPL
  Cut-off concentrations Sample 2: 8 n-fold TPL
  Cut-off concentrations Sample 3: 8 n-fold TPL
  IC50 Sample 1: 4.565 n-fold TPL
  IC50 Sample 2: 4.718 n-fold TPL
  IC50 Sample 3: 5.040 n-fold TPL
Tumor-No. 2
  Range from: 0.5 n-fold TPL
  Range to: 32.0 n-fold TPL
  Cut-off concentrations Sample 1: X (not more than 5 colonies at most have appeared at the highest dose rate)
  Cut-off concentrations Sample 2: X (not more than 5 colonies at most have appeared at the highest dose rate)
  Cut-off concentrations Sample 3: X (not more than 5 colonies at most have appeared at the highest dose rate)
  IC50 Sample 1: 1.486 n-fold TPL
  IC50 Sample 2: 0.579 n-fold TPL
  IC50 Sample 3: 1.157 n-fold TPL
Tumor-No. 3
  Range from: 2.0 n-fold TPL
  Range to: 32.0 n-fold TPL
  Cut-off concentrations Sample 1: X (not more than 5 colonies at most have appeared at the highest dose rate)
  Cut-off concentrations Sample 2: X (not more than 5 colonies at most have appeared at the highest dose rate)
  Cut-off concentrations Sample 3: X (not more than 5 colonies at most have appeared at the highest dose rate)
  IC50 Sample 1: 16.404 n-fold TPL
  IC50 Sample 2: 10.711 n-fold TPL
  IC50 Sample 3: 19.173 n-fold TPL
Tumor-No. 4
  Range from: 4.0 n-fold TPL
  Range to: 32.0 n-fold TPL
  Cut-off concentrations Sample 1: XX (more than 5 colonies have appeared at the highest dose rate)
  Cut-off concentrations Sample 2: X (not more than 5 colonies at most have appeared at the highest dose rate)
  Cut-off concentrations Sample 3: XX (more than 5 colonies have appeared at the highest dose rate)
  IC50 Sample 1: 27.819 n-fold TPL
  IC50 Sample 3: 23.393 n-fold TPL
Tumor-No. 5
  Range from: 0.5 n-fold TPL
  Range to: 32.0 n-fold TPL
  Cut-off concentrations Sample 1: X (not more than 5 colonies at most have appeared at the highest dose rate)
  Cut-off concentrations Sample 2: XX (more than 5 colonies have appeared at the highest dose rate)
  Cut-off concentrations Sample 3: X (not more than 5 colonies at most have appeared at the highest dose rate)
  IC50 Sample 1: 3.891 n-fold TPL
  IC50 Sample 3: 9.987 n-fold TPL
Tumor-No. 6
  Range from: 2.0 n-fold TPL
  Range to: 32.0 n-fold TPL
  Cut-off concentrations Sample 1: X (not more than 5 colonies at most have appeared at the highest dose rate)
  Cut-off concentrations Sample 2: X (not more than 5 colonies at most have appeared at the highest dose rate)
  Cut-off concentrations Sample 3: X (not more than 5 colonies at most have appeared at the highest dose rate)
  IC50 Sample 1: 8.208 n-fold TPL
  IC50 Sample 2: 6.690 n-fold TPL
  IC50 Sample 3: 8.404 n-fold TPL
Tumor-No. 7
  Range from: 2.0 n-fold TPL
  Range to: 32.0 n-fold TPL
  Cut-off concentrations Sample 1: 32 n-fold TPL
  Cut-off concentrations Sample 2: 32 n-fold TPL
  Cut-off concentrations Sample 3: 32 n-fold TPL
  IC50 Sample 1: 3.616 n-fold TPL
  IC50 Sample 2: 3.629 n-fold TPL
  IC50 Sample 3: 2.692 n-fold TPL
Tumor-No. 8
  Range from: 1.0 n-fold TPL
  Range to: 32.0 n-fold TPL
  Cut-off concentrations Sample 1: 32 n-fold TPL
  Cut-off concentrations Sample 2: 32 n-fold TPL
  Cut-off concentrations Sample 3: X (not more than 5 colonies at most have appeared at the highest dose rate)
  IC50 Sample 1: 6.709 n-fold TPL
  IC50 Sample 3: 5.282 n-fold TPL
Tumor-No. 9
  Range from: 0.5 n-fold TPL
  Range to: 32.0 n-fold TPL
  Cut-off concentrations Sample 1: X (not more than 5 colonies at most have appeared at the highest dose rate)
  Cut-off concentrations Sample 2: X (not more than 5 colonies at most have appeared at the highest dose rate)
  Cut-off concentrations Sample 3: X (not more than 5 colonies at most have appeared at the highest dose rate)
  IC50 Sample 1: 6.964 n-fold TPL
  IC50 Sample 2: 7.495 n-fold TPL
Concentrations ≤ TPL, seven tumors (No. 2, 3, 4, 5, 6, 8 and 9)
  effect on number of epithelial colonies at low concentrations: hormesis
